Patent US12612412B2, “Antiviral heterocyclic compounds” (Enanta Pharmaceuticals, Inc., priority 2021, dated 2026)
Like-named read-outs stand apart in the source and are kept apart here.

Tests used:
[1] = tested on: recombinant HMPV CAN97-83 containing eGFP (MPV-GFP1); experiment: HMPV antiviral assay Method-A (MPV-GFP1 eGFP fluorescence in Vero E6 cells); format: cell-based, Human metapneumovirus (HMPV); conditions: read-out: HMPV EC50
Description: HMPV antiviral activity was evaluated using a recombinant version of HMPV CAN97-83 engineered to contain the coding sequence for enhanced green fluorescence protein (eGFP) in the 3′ end of the virus genome (MPV-GFP1, ViraTree). Vero E6 cells ([…]) were seeded at a density of 12,000 cells/100 μL/well into 96-well cell plates one day prior to the assay. On the day of screening, the cell culture medium was aspirated from the wells and cells were washed twice with serum-free Eagle's Modified Essential Medium (EMEM, ATCC #) containing 1% penicillin-streptomycin (Invitrogen) (SF-EMEM). Cell washes were performed by dispensing 100 μL SF-EMEM per well and immediately aspirating the wash medium from the well. Following the second wash step, serum-free OptiMEM (Invitrogen, Cat No.) (SF-OptiMEM) containing 0.5 μg/mL TPCK-Trypsin (VENDOR) and 1% penicillin-streptomycin was added to the cells at 50 μL/well. Compounds were added into the 96-well plates using a JANUS automated liquid handling system (VENDOR). Compounds were initially diluted 1:50 into an intermediate 96-well plate containing SF-OptiMEM prior to transfer to the assay plate (25 μL/well). Each of the test compounds were tested in duplicate wells at final concentrations starting from 8 μM or 2 μM using ½ stepwise dilutions for a total of 8 points. Virus infection was performed by preparing a working stock of MPV-GFP1 at a multiplicity of infection (MOI) equal to 0.05/25 μL and aliquoting 25 μL of virus inoculum to the compound and positive control wells. SF-OptiMEM was added (25 μL/well) to the appropriate wells to serve as a virus-free negative control for the assay. The final DMSO concentration of all wells is 0.5%. Plates were incubated at 32° C., 5% CO2 for 5 days.
After 5 days incubation, eGFP fluorescence intensity was measured at (X) […] wavelength using a Spectramax i3× plate reader (VENDOR). Percent viral inhibition was calculated using the following equation: y=[…]
Where XQ is the fluorescence intensity measured in a well containing recombinant MPV-GFP1-infected, compound-treated cells and XP is the average fluorescence intensity measured in the wells containing untreated cells infected with recombinant virus. EC50 values were then calculated by non-linear regression using a four parameter curve logistic equation. The curve fit model employed was XLFit Dose Response One Site Model 200: y=(A+(B/(1+((x/C)^D))))
Where A is the minimum y value, B is the maximum y value, C is the log EC50 value, and D is the slope factor. […] EC50 ranges are as follows: A<0.5 μM; B>0.5 μM.

[2] = tested on: genotype A, "Long" strain RSV; experiment: RSV-A assay (CPE protection in Hep-2 cells, ATPlite readout); format: cell-based, Human respiratory syncytial virus (HRSV); conditions: genotype A “Long” strain RSV, MOI 0.1, CPE protection, read-out: Human RSV-A (“Long”)
Method in brief: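 In this cytopathic-effect protection format, infected Hep-2 cultures (MOI 0.1) are exposed to compound for 5 days. Surviving cell ATP is quantified with ATPlite, and EC50 is determined.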

[3] = human metapneumovirus, Vero C1008, 120 h
[4] = human respiratory syncytial virus

| Compound | EC50 [1, 3] [nM] | EC50 [2, 4] [nM] | EC50 ([1]; Method-A, MPV-GFP1 in Vero E6 cells, eGFP fluorescence after 5 days) [nM] | EC50 [2] [nM] |
| --- | --- | --- | --- | --- |
| Cc1cnc2c(Nc3ccc(O)nn3)cc(C(=O)NC[C@](O)(c3cc4c(c(-c5ccc(F)cc5)n3)OC[C@]4(C)C(N)=O)C(F)(F)F)cc2c1 [Example 120] | > 500 | < 200 |  |  |
| COc1ccc(Nc2cc(C(=O)NC[C@](O)(c3cc4c(c(-c5ccc(F)cc5)n3)OC[C@]4(C)C(N)=O)C(F)(F)F)cc3cc(C)cnc23)nn1 [Example 121] | < 500 | < 200 |  |  |
| [2H]C([2H])([2H])c1cc(C(=O)NC[C@](O)(c2cc3c(c(-c4ccc(F)cc4)n2)OC[C@]3(C)C(N)=O)C(F)(F)F)cc2cn[nH]c12 [Example 128] | < 500 | < 200 |  |  |
| C[C@]1(C(N)=O)COc2c1cc([C@@](O)(CNC(=O)c1ccc3[nH]c(=O)sc3c1)C(F)(F)F)nc2-c1ccc(F)cc1 [Example 129] | > 500 | < 200 |  |  |
| COc1cc(C(=O)NC[C@](O)(c2cc3c(c(-c4ccc(F)cc4)n2)OC[C@]3(C)C(N)=O)C(F)(F)F)ccc1OC[C@H](O)C(F)(F)F [Example 132] | > 500 | < 200 |  |  |
| COc1cc(C(=O)NC[C@](O)(c2cc3c(c(-c4ccc(F)cc4)n2)OC[C@]3(C)C(N)=O)C(F)(F)F)ccc1OCC1(O)CC1 [Example 134] | > 500 | < 200 |  |  |
| C[C@]1(C(N)=O)COc2c1cc([C@@](O)(CNC(=O)c1ccc(OC[C@H](O)C(F)(F)F)c(OC3CC3)c1)C(F)(F)F)nc2-c1ccc(F)cc1 [Example 135] | > 500 | < 200 |  |  |
| COc1cc(C(=O)NC[C@](O)(c2cc3c(c(-c4ccc(F)cc4)n2)OC[C@]3(C)C(N)=O)C(F)(F)F)ccc1OC[C@H](O)C(F)F [Example 136] | > 500 | < 200 |  |  |
| COc1cc(C(=O)NC[C@](O)(c2cc3c(c(-c4ccc(F)cc4)n2)OC[C@]3(C)C(N)=O)C(F)(F)F)ccc1OC[C@@H](C)O [Example 138] | > 500 | < 200 |  |  |
| CCNc1nc2ccc(C(=O)NC[C@](O)(c3cc4c(c(-c5ccc(F)cc5)n3)OC[C@]4(C)C(N)=O)C(F)(F)F)cc2s1 [Example 139] | > 500 | < 200 |  |  |
| C[C@]1(C(N)=O)COc2c1cc([C@@](O)(CNC(=O)c1ccc3nc(C(F)F)sc3c1)C(F)(F)F)nc2-c1ccc(F)cc1 [Example 141] | > 500 | < 200 |  |  |
| C[C@]1(C(N)=O)COc2c1cc([C@@](O)(CNC(=O)c1ccc3nc(CF)sc3c1)C(F)(F)F)nc2-c1ccc(F)cc1 [Example 142] | > 500 | < 200 |  |  |
| [2H]C([2H])([2H])c1cc2cc(C(=O)NC[C@](O)(c3cc4c(c(-c5ccc(F)cc5)n3)OC[C@]4(C)C(N)=O)C(F)(F)F)cc(OC)c2nc1C [Example 143] | < 500 | < 200 |  |  |
| COc1cc(C(=O)NC[C@](O)(c2cc3c(c(-c4ccc(F)cc4)n2)OC[C@]3(C)C(N)=O)C(F)(F)F)cc2cc(CF)c(C)nc12 [Example 147] | < 500 | < 200 |  |  |
| COc1cc(C(=O)NC[C@](O)(c2cc3c(c(-c4ccc(F)cc4)n2)OC[C@]3(C)C(N)=O)C(F)(F)F)cc2cc(C(F)F)c(C)nc12 [Example 148] | < 500 | < 200 |  |  |
| COc1cc(C(=O)NC[C@](O)(c2cc3c(c(-c4ccc(F)cc4)n2)OC[C@]3(C)C(N)=O)C(F)(F)F)ccc1OC[C@@H](C)OP(=O)(O)O [Example 149] | > 500 | < 200 |  |  |
| C[C@]1(C(N)=O)COc2c1cc([C@@](O)(CNC(=O)c1ccc3nc(NC(=O)CN)sc3c1)C(F)(F)F)nc2-c1ccc(F)cc1 [Example 152] | > 500 | < 200 |  |  |
| C[C@H](N)C(=O)Nc1nc2ccc(C(=O)NC[C@](O)(c3cc4c(c(-c5ccc(F)cc5)n3)OC[C@]4(C)C(N)=O)C(F)(F)F)cc2s1 [Example 153] | > 500 | < 200 |  |  |
| C[C@@H](N)C(=O)Nc1nc2ccc(C(=O)NC[C@](O)(c3cc4c(c(-c5ccc(F)cc5)n3)OC[C@]4(C)C(N)=O)C(F)(F)F)cc2s1 [Example 154] | > 500 | < 200 |  |  |

| Compound | EC50 [1, 3] [nM] | EC50 [2, 4] [nM] | EC50 ([1]; Method-A, MPV-GFP1 in Vero E6 cells, eGFP fluorescence after 5 days) [nM] | EC50 [2] [nM] |
| --- | --- | --- | --- | --- |
| CC(C)[C@H](N)C(=O)Nc1nc2ccc(C(=O)NC[C@](O)(c3cc4c(c(-c5ccc(F)cc5)n3)OC[C@]4(C)C(N)=O)C(F)(F)F)cc2s1 [Example 155] | > 500 | < 200 |  |  |
| CC(C)[C@@H](N)C(=O)Nc1nc2ccc(C(=O)NC[C@](O)(c3cc4c(c(-c5ccc(F)cc5)n3)OC[C@]4(C)C(N)=O)C(F)(F)F)cc2s1 [Example 156] | > 500 | < 200 |  |  |
| C[C@@H](N)C(=O)Nc1nc2ccc(C(=O)NC[C@](O)(c3cc4c(c(-c5ccc(F)cc5)n3)OC[C@]4(C)C(N)=O)C(F)(F)F)cc2s1 [Example 158] |  |  | > 500 | < 200 |
| C[C@]1(C(N)=O)COc2c1cc([C@@](O)(CNC(=O)c1ccc3nc(NC(=O)[C@@H]4CCCN4)sc3c1)C(F)(F)F)nc2-c1ccc(F)cc1 [Example 160] | > 500 | < 200 |  |  |
| C[C@]1(C(N)=O)COc2c1cc([C@@](O)(CNC(=O)c1ccc3nc(CO)sc3c1)C(F)(F)F)nc2-c1ccc(F)cc1 [Example 161] | > 500 | < 200 |  |  |
| C[C@]1(C(N)=O)COc2c1cc([C@@](O)(CNC(=O)c1ccc3nc(NCCN)sc3c1)C(F)(F)F)nc2-c1ccc(F)cc1 [Example 165] | > 500 | < 200 |  |  |
| COc1cc(C(=O)NC[C@](O)(c2cc3c(c(-c4ccc(F)cc4)n2)OC[C@]3(C)C(N)=O)C(F)(F)F)cc2cc(C3CC3)c(CO)nc12 [Example 166] | > 500 | < 200 |  |  |
| COc1cc(C(=O)NC[C@](O)(c2cc3c(c(-c4ccc(F)cc4)n2)OC[C@]3(CO)C(N)=O)C(F)(F)F)cc2cc(C)c(C)nc12 [Example 167] | > 500 | < 200 |  |  |
| CCn1cc2cc(C(=O)NC[C@](O)(c3cc4c(c(-c5ccc(F)cc5)n3)OC[C@]4(C)C(N)=O)C(F)(F)F)ccc2n1 [Example 168] | < 500 | < 200 |  |  |
| CC(C)n1cc2cc(C(=O)NC[C@](O)(c3cc4c(c(-c5ccc(F)cc5)n3)OC[C@]4(C)C(N)=O)C(F)(F)F)ccc2n1 [Example 169] | > 500 | < 200 |  |  |
| C[C@]1(C(N)=O)COc2c1cc([C@@](O)(CNC(=O)c1ccc3nn(C4CC4)cc3c1)C(F)(F)F)nc2-c1ccc(F)cc1 [Example 170] | < 500 | < 200 |  |  |
| CCc1cc2cc(C(=O)NC[C@](O)(c3cc4c(c(-c5ccc(F)cc5)n3)OC[C@]4(C)C(N)=O)C(F)(F)F)cc(OC)c2nc1C [Example 174] | > 500 | < 200 |  |  |
| Cc1cc2cc(C(=O)NC[C@](O)(c3cc4c(c(-c5ccc(F)cc5)n3)OC[C@]4(C)C(N)=O)C(F)(F)F)cc(Cl)c2nc1C [Example 177] | < 500 | < 200 |  |  |
| Cc1cc2cc(C(=O)NC[C@](O)(c3cc4c(c(-c5ccc(F)cc5)n3)OC[C@]4(C)C(N)=O)C(F)(F)F)cc(OC3CC3)c2nc1C [Example 178] | > 500 | < 200 |  |  |
| Cc1cc2cc(C(=O)NC[C@](O)(c3cc4c(c(-c5ccc(F)cc5)n3)OC[C@]4(C)C(N)=O)C(F)(F)F)cc(OC(F)(F)F)c2nc1C [Example 179] | > 500 | < 200 |  |  |
| Cc1cc2cc(C(=O)NC[C@](O)(c3cc4c(c(-c5ccc(F)c(Cl)c5)n3)OC[C@]4(C)C(N)=O)C(F)(F)F)cc(Cl)c2nc1C [Example 182] | < 500 | < 200 |  |  |
| Cc1cc2cc(C(=O)NC[C@](O)(c3cc4c(c(-c5ccc(F)c(Cl)c5)n3)OC[C@]4(C)C(N)=O)C(F)(F)F)cc(OC(F)(F)F)c2nc1C [Example 184] | > 500 | < 200 |  |  |
| C[C@]1(C(N)=O)COc2c1cc([C@@](O)(CNC(=O)c1cc(Cl)c3[nH]ccc3c1)C(F)(F)F)nc2-c1ccc(F)cc1 [Example 199] | > 500 | < 200 |  |  |
| COc1cc(C(=O)NC[C@](O)(c2cc3c(c(-c4ccc(F)cc4)n2)OC[C@]3(C)C(N)=O)C(F)(F)F)cc2cc[nH]c12 [Example 200] | > 500 | < 200 |  |  |
